Measurements taken from patent publication US20040191287A1, “Fumigation process for stored food grains” (priority 2003, published 2004).
Where two headings read alike, the source gives them in different places.

How the values were obtained:
[1] = system: S. oryzae mixed-age cultures; settings: 200 mg/liter, 26 ± 2° C., 19.5 liter tin container with 12 kg of wheat
Method: (§2) Further fumigation tests were carried out with allyl acetate at 200 mg/litre and with three different exposure periods of 24, 48 and 72 hours in 19.5 litre tin containers filled with 12 kg of wheat. Mixed- age cultures of R. dominica, S. oryzae and T. castaneum were used as the test insects.
(§3) Mixed-age cultures of S. oryzae and R. dominica were obtained by allowing 300 adults of the individual species to breed in about 1 kg of wheat in a 2-liter glass jar. To obtain mixed- age culture of T. castaneum about 300 adults were released into 1 kg of whole-wheat flour plus 5% dried yeast in a 2-litre glass jar. The insect culture jars were kept under the rearing temperature conditions i.e., 25±1° C. for S. oryzae and T. castaneum and 30±1° C. for R. dominica. The infested grain/flour after an incubation period of 7 weeks was used for the experiment. The cultures were weighed into 50 gm aliquots in 21 cm×14 cm size cloth bags. One set of three test insect bags comprising R. dominica, S. oryzae and T. castaneum were kept at the bottom of the container before filling the grain. […] Another set of three-test insect bags was kept on the top layer of grains. The grain-filled containers were, then, fumigated with allyl acetate for 24, 48 and 72 hours at 26±2° C. The commodity was treated with allyl acetate at the dosage of 200 mg/litre. Required quantity of allyl acetate was measured in 10 and 25 ml measuring cylinder and quickly poured on to 5 gm of absorbent cotton wool kept over the grain layer in the tin container. Immediately after dosing, the container was closed with the lid tightly and sealed along the rim with adhesive tape. At the end of the exposure period, the lid was removed to aerate the commodity and the test insect bags were retrieved and the contents transferred to 300 ml capacity glass bottles. Insect survivors in the samples were recorded at weekly intervals for 8 weeks. Mortality in fumigated batches was calculated based on emergence/survivors in controls.

[2] = system: S. oryzae mixed-age cultures; settings: 72 hours at 26±2° C., 19.5 liter tin container with 12 kg wheat
Excerpt: (§4) Fumigation experiments with allyl acetate have been conducted in 19.5 litre capacity tin containers with mixed- age cultures of R. dominica, S. oryzae and T. castaneum as the test insects.
(§5) Mixed-age cultures of S. oryzae and R. dominica were obtained by allowing 300 adults of the individual species to breed in about 1 kg of wheat in a 2-liter glass jar. To obtain mixed- age culture of T. castaneum about 300 adults were released into 1 kg of whole-wheat flour plus 5% dried yeast in a 2-litre glass jar. The insect culture jars were kept under the rearing temperature conditions i.e., 25±1° C. for S. oryzae and T. castaneum and 30±1° C. for R. dominica.
(§6) The infested grain/flour after an incubation period of 7 weeks was used for the experiment. The cultures were weighed into 50 gm aliquots in 21 cm×14 cm size cloth bags. One set of three test insect bags comprising R. dominica, S. oryzae and T. castaneum were kept at the bottom of the container before filling the grain.
(§7) Another set of three-test insect bags was kept on the top layer of grains. The grain-filled containers were, then, fumigated with allyl acetate for 72 hours at 26±2° C. There were 6 doses ranging from 100 to 800 mg/litre with 3 replicates/dosage along with untreated controls. Required quantity of allyl acetate was measured in 10 and 25 ml measuring cylinder and quickly poured on to 5 gm of absorbent cotton wool kept over the grain layer in the tin container.
(§8) Immediately after dosing, the container was closed with the lid tightly and sealed along the rim with adhesive tape. At the end of 72 hour, the lid was removed to aerate the commodity and the test insect bags were retrieved and the contents transferred to 300 ml capacity glass bottles.
(§9) Insect survivors in the samples were recorded at weekly intervals for 8 weeks. Mortality in fumigated batches was calculated based on emergence/survivors in controls.

[3] = system: S. oryzae mixed-age cultures; assay: Fumigation in 125 litre plastic drums with 100 kg wheat, with/without perforated tubing (Example 6); assay type: in vivo, Sitophilus oryzae; settings: for Insect Survivors / mortality at 200 µg/mL: S. oryzae, 200 mg/liter, 72 hours, 26 ± 2° C., 125 liter drum, 100 kg wheat; for mortality at 200 µg/mL: 72 h, read-out: % mortality based on survivors in untreated controls
Method: In another set of experiments, fumigations were carried out in the plastic drums with 100 kg […] acetate (27 ml of liquid) was dispensed at one location, that is, on the top layer of the grain. In both sets of experiments, there were 3 replicates for control and fumigated batches.
Insect mortality in fumigated batches was determined by taking into consideration of survivors in respective controls as 100%.

[4] = system: R. dominica mixed-age cultures; settings: 200 mg/liter, 26 ± 2° C., 19.5 liter tin container with 12 kg of wheat
Method: as §2, §3

Rhyzopertha dominica = assay: whole plant or invertebrate
Method: (§1) Cryptolestes sp. was reared on wheat feed. S. oryzae, Cryptolestes sp. and T. castaneum cultures were maintained at 25±1° C. and 70% RH whereas R. dominica cultures were maintained at 30±1° C. and 70% RH. From the established cultures, 2-week-old adults were taken and counted into 10 cm×2.3 cm size test tubes at 50 per replicate. The mouth of the tube was closed with a cloth piece held by small rubber ring. The insects were exposed to a range of doses (10 to 100 mg/litre) of esters for 24 hours in 0.85-liter desicators at the laboratory temperature of 26±2° C. Pure grade esters including allyl acetate, butyl acetate, ethyl acetoacetate, isopropyl acetate and propyl acetate were procured from Merck India Ltd. In each desiccator a 9 cm diameter Whatman No. 1 filter circle was placed; the filter circle acted as evaporating surface for the injected liquids (esters). Required quantity of the ester was drawn from the bottles using 10, 25 or 50 micro litre liquid syringe. There were 6 replicates for each dose with equal number of replicates for untreated control. The exposure period in all cases was 24 hours. […] Insect mortality was assessed after 14 days. Corrected mortality was arrived at based on Abbott's formula (1925).

Tribolium castaneum = assay: whole plant or invertebrate
Method: as §1

Sitophilus oryzae = assay: whole plant or invertebrate
Method: as §1

[5] = system: T. castaneum mixed-age cultures; assay: Fumigation in 125 litre plastic drums with 100 kg wheat, with/without perforated tubing (Example 6); assay type: in vivo, Tribolium castaneum; settings: for Insect Survivors / mortality at 200 µg/mL: T. castaneum, with perforated tubing, 200 mg/liter, 72 hours, 26 ± 2° C., 125 liter drum, 100 kg wheat; for mortality at 200 µg/mL: 72 h, read-out: % mortality based on survivors in untreated controls
[6] = system: T. castaneum mixed-age cultures; settings: 200 mg/liter, 26 ± 2° C., 19.5 liter tin container with 12 kg of wheat
Method: as §2, §3

[7] = system: T. castaneum mixed-age cultures; settings: 72 hours at 26±2° C., 19.5 liter tin container with 12 kg wheat
Excerpt: as §4, §5, §6, §7, §8, §9

[8] = Rhyzopertha dominica, read-out: Mortality (%) (Mean ± SD)
[9] = Tribolium castaneum, read-out: Mortality (%) (Mean ± SD)
[10] = Sitophilus oryzae, read-out: Mortality (%) (Mean ± SD)

C=CCOC(C)=O [allyl acetate]
% mortality based on survivors in controls ([1]; exposure period 24 hour): (99.9) % | No. of survivors from 50 g lots of mixed-age cultures following treatment ([1]; exposure period 24 hour): 0.33 | % mortality based on survivors in controls ([1]; exposure period 48 hour): (99.9) % | No. of survivors from 50 g lots of mixed-age cultures following treatment ([1]; exposure period 48 hour): 0.33 | % mortality based on survivors in controls ([1]; exposure period 72 hour): (100) % | No. of survivors from 50 g lots of mixed-age cultures following treatment ([1]; exposure period 72 hour): 0 | % mortality based on survivors in controls ([2]; 100 mg/liter): (98.9) % | No. of survivors from 50 g lots of mixed-age cultures following treatment ([2]; 100 mg/liter): 11.5 | % mortality based on survivors in controls ([2]; 150 mg/liter): (99.9) % | No. of survivors from 50 g lots of mixed-age cultures following treatment ([2]; 150 mg/liter): 1 | % mortality based on survivors in controls ([2]; 200 mg/liter): (100) % | No. of survivors from 50 g lots of mixed-age cultures following treatment ([2]; 200 mg/liter): 0 | % mortality based on survivors in controls ([2]; 400 mg/liter): (100) % | No. of survivors from 50 g lots of mixed-age cultures following treatment ([2]; 400 mg/liter): 0 | % mortality based on survivors in controls ([2]; 600 mg/liter): (100) % | No. of survivors from 50 g lots of mixed-age cultures following treatment ([2]; 600 mg/liter): 0 | % mortality based on survivors in controls ([2]; 800 mg/liter): (100) % | No. of survivors from 50 g lots of mixed-age cultures following treatment ([2]; 800 mg/liter): 0 | Insect Survivors ([3]; with perforated tubing, test insect bag at bottom layer): 0 | Insect Survivors ([3]; with perforated tubing, test insect bag at middle layer): 0 | Insect Survivors ([3]; with perforated tubing, test insect bag at top layer): 0 | Insect Survivors ([3]; without perforated tubing, test insect bag at bottom layer): 22.33 | Insect Survivors ([3]; without perforated tubing, test insect bag at middle layer): 0.33 | Insect Survivors ([3]; without perforated tubing, test insect bag at top layer): 0 | mortality at 200 µg/mL ([3]; Sitophilus oryzae, with perforated tubing, bottom layer): 100% | mortality at 200 µg/mL ([3]; Sitophilus oryzae, with perforated tubing, middle layer): 100% | mortality at 200 µg/mL ([3]; Sitophilus oryzae, with perforated tubing, top layer): 100% | mortality at 200 µg/mL ([3]; Sitophilus oryzae, without perforated tubing, bottom layer): 95.3% | mortality at 200 µg/mL ([3]; Sitophilus oryzae, without perforated tubing, middle layer): 99.9% | mortality at 200 µg/mL ([3]; Sitophilus oryzae, without perforated tubing, top layer): 100% | dosage for 100% kill of all stages ([3]; Sitophilus oryzae, all stages, preferred exposure period 72 hours): 200 mg per litre of space | % mortality based on survivors in controls ([4]; exposure period 24 hour): (100) % | No. of survivors from 50 g lots of mixed-age cultures following treatment ([4]; exposure period 24 hour): 0 | % mortality based on survivors in controls ([4]; exposure period 48 hour): (100) % | No. of survivors from 50 g lots of mixed-age cultures following treatment ([4]; exposure period 48 hour): 0 | % mortality based on survivors in controls ([4]; exposure period 72 hour): (100) % | No. of survivors from 50 g lots of mixed-age cultures following treatment ([4]; exposure period 72 hour): 0 | mortality at 10 µg/mL (Rhyzopertha dominica; [8]): 100% | mortality at 20 µg/mL (Rhyzopertha dominica; [8]): 100% | mortality at 30 µg/mL (Rhyzopertha dominica; [8]): 100% | mortality at 50 µg/mL (Rhyzopertha dominica; [8]): 100% | mortality at 100 µg/mL (Rhyzopertha dominica; [8]): 100% | mortality of the adults (Rhyzopertha dominica; in vivo): 100% | mortality at 10 µg/mL (Tribolium castaneum; [9]): 96 ± 3.7% | mortality at 20 µg/mL (Tribolium castaneum; [9]): 100% | mortality at 30 µg/mL (Tribolium castaneum; [9]): 100% | mortality at 50 µg/mL (Tribolium castaneum; [9]): 100% | mortality at 100 µg/mL (Tribolium castaneum; [9]): 100% | mortality of the adults (Tribolium castaneum; in vivo): 100% | mortality at 10 µg/mL (Sitophilus oryzae; [10]): 92.3 ± 12.7% | mortality at 20 µg/mL (Sitophilus oryzae; [10]): 100% | mortality at 30 µg/mL (Sitophilus oryzae; [10]): 100% | mortality at 50 µg/mL (Sitophilus oryzae; [10]): 100% | mortality at 100 µg/mL (Sitophilus oryzae; [10]): 100% | mortality of the adults (Sitophilus oryzae; in vivo): 100% | Insect Survivors ([5]; test insect bag at bottom layer): 0 | Insect Survivors ([5]; test insect bag at middle layer): 0 | Insect Survivors ([5]; test insect bag at top layer): 0 | mortality at 200 µg/mL ([5]; Tribolium castaneum, bottom layer): 100% | mortality at 200 µg/mL ([5]; Tribolium castaneum, middle layer): 100% | mortality at 200 µg/mL ([5]; Tribolium castaneum, top layer): 100% | dosage for 100% kill of all stages ([5]; Tribolium castaneum, all stages, preferred exposure period 72 hours): 200 mg per litre of space | % mortality based on survivors in controls ([6]; exposure period 24 hour): (100) % | No. of survivors from 50 g lots of mixed-age cultures following treatment ([6]; exposure period 24 hour): 0 | % mortality based on survivors in controls ([6]; exposure period 48 hour): (100) % | No. of survivors from 50 g lots of mixed-age cultures following treatment ([6]; exposure period 48 hour): 0 | % mortality based on survivors in controls ([6]; exposure period 72 hour): (100) % | No. of survivors from 50 g lots of mixed-age cultures following treatment ([6]; exposure period 72 hour): 0 | % mortality based on survivors in controls ([7]; 100 mg/liter): (100) % | No. of survivors from 50 g lots of mixed-age cultures following treatment ([7]; 100 mg/liter): 0 | % mortality based on survivors in controls ([7]; 150 mg/liter): (100) % | No. of survivors from 50 g lots of mixed-age cultures following treatment ([7]; 150 mg/liter): 0 | % mortality based on survivors in controls ([7]; 200 mg/liter): (100) % | No. of survivors from 50 g lots of mixed-age cultures following treatment ([7]; 200 mg/liter): 0 | % mortality based on survivors in controls ([7]; 400 mg/liter): (100) % | No. of survivors from 50 g lots of mixed-age cultures following treatment ([7]; 400 mg/liter): 0 | % mortality based on survivors in controls ([7]; 600 mg/liter): (100) % | No. of survivors from 50 g lots of mixed-age cultures following treatment ([7]; 600 mg/liter): 0 | % mortality based on survivors in controls ([7]; 800 mg/liter): (100) % | No. of survivors from 50 g lots of mixed-age cultures following treatment ([7]; 800 mg/liter): 0
